Patent US20090181976A1, “Use of Compounds Binding to the Sigma Receptor for the Treatment of Metabolic Syndrome” (priority 2006, published 2009)

Key:
[1] = test system: obese (diet-induced obesity) wild type mice; experiment: Triglyceride levels in blood of high fat diet-fed obese mice after 9 days of treatment; format: in vivo; conditions: male C57BL/6J mice on high fat diet, 50 mg/Kg s.c., once a day, blood on day 10, mean±standard deviation, p<0.05 vs vehicle control (91.75±32.88)
Procedure: Pharmacologic approach: Treatment of obese (diet-induced obesity) wild type mice with a sigma-1 receptor antagonist results in a significant reduction in the concentration of triglycerides in blood.
Wild type male mice from the C57BL/6J strain were used in these experiments. Mice of 8-10 weeks of age were fed for two months with high fat diet (49% fat content; Harlan Ibérica, TD97366). Treatment was administered subcutaneously, once a day, for 9 days. Treated animals received daily (for 9 days) a single dose of 50 mg/kg of BD-1063 (a sigma-1 receptor antagonist). Control animals received daily vehicle (saline). During the period of treatment, mice had free access to water and food (high fat diet). At the end of the treatment, on day 10, blood samples were obtained through intracardiac puncture and triglyceride levels were measured using the Cholestech LDX blood analyzer. Student t test was applied to determine statistical significance.
Values are means±standard deviation. Units are expressed as mg/100 mL.

sigma-1 (σ1) receptors = sigma-1 (σ1) receptors (Homo sapiens, UniProt Q99720); conditions: statement on literature knowledge; cited from earlier work
Chain of sigma-1 (σ1) receptors (Q99720 whole entry): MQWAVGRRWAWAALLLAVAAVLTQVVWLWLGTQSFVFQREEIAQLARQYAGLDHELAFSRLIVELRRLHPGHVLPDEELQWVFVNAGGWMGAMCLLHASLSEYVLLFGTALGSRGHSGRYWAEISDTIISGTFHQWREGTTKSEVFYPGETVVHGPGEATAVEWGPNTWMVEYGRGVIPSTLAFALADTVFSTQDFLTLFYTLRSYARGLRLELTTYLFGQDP

| SMILES | Triglyceride Levels [1] [mg/100 mL] | affinity of sigma-1 receptors (sigma-1 (σ1) receptors) |
| --- | --- | --- |
| CN1CCN(CCc2ccc(Cl)c(Cl)c2)CC1 [BD-1063] | 56.8±9.41 | – |
| CC(C)=CCN1CCC2(C)c3cc(O)ccc3CC1C2C (centres unmarked) [pentazocine] | – | very high affinity |
